Experimental data as given in patent US20210395696A1, “ISOLATED NASOPHARYNGEAL CARCINOMA CELLS AND DERIVATIVES PREPARED THEREOF” (INSTITUTE FOR MEDICAL RESEARCH, priority 2018, published 2021).

Assays:
[1] = system: gfp-luc2-labelled PDX cells (NPC), metastatic model; assay: Drug testing in metastatic tumour model of gfp-luc2-labelled PDX (intra-cardiac injection); format: in vivo, NSG mice; conditions: metastatic model (left ventricle injection); 2 mg/kg i.p. weekly for 3 weeks; bioluminescence imaging
Method: (§1) All experiments were performed in accordance with national regulations and were approved by the AC UC of Ministry of Health, Malaysia. NSG mice, 6-8 weeks old were anaesthetized using Ketamine-Xylazine (100 mg/ml and 10 mg/ml).
(§2) To test the effect of drug on tumour growth inhibition, subcutaneous and/or metastatic model were used. For subcutaneous model, 2×10^5 cells of gfp-luc2 cells were resuspended in RPMI and mixed with matrigel at 1:1 ratio and injected into the right flank. For metastatic model, 2×10^5 cells of gfp-luc2 cells were resuspended in 100 μl of RPMI and injected into left ventricle. Weekly bioluminescence imaging (BLI) were carried out to monitor the progress of tumour growth using VIS Spectrum.
(§3) When tumour volume reached to 50-150 mm^3 or once the signal intensity reached 1×10^4 (average radiance, p/sec/cm^2/sr) mice were randomised into control or treatment group. Treatment commenced 35 days post inoculation. Mice were treated with vehicle (0.9% NaCl) or cisplatin (2 mg/kg) via intraperitoneal (i.p.) injection, weekly for 3 weeks. Tumour volume was measured thrice weekly using callipers and BLI was carried out weekly. Mice were observed daily for general wellbeing and tumour burden.

[2] = system: gfp-luc2-labelled PDX cells (NPC), subcutaneous model; assay: Drug testing in subcutaneous tumour model of gfp-luc2-labelled PDX; format: in vivo, NSG mice; conditions: 2 mg/kg i.p. weekly for 3 weeks, bioluminescence imaging
Method: as §1, §2, §3

Structure (SMILES): N.N.[Cl][Pt][Cl] [cisplatin]
- tumour response as measured by the luminescence signals intensity [1]: tumour regression
- tumour response as measured by the luminescence signals intensity [2]: tumour regression
